Test results taken from patent US12496297B1, “Compositions of autophagy modulating agents and uses thereof” (Washington University, priority 2020, dated 2025).

The molecules below were run on α1-antitrypsin Z variant (ATZ) (assay: Steady state levels of ATZ in HTO/Z cell line (immunoblot); activity of G2 analogs). Conditions: 48 hrs incubation, immunoblot, FIG. 8 / FIG. 14.
Type: cell-based, human
Procedure: For experiments with G2 analogs, Tet-off inducible cell lines were cultured in absence of doxycycline for at least 12 days to ensure expression of […] or its variants. The cells were then sub-cultured into separate monolayers in fresh complete growth medium and incubated for 48 hours in the absence or presence of G2 analog. […] All compounds available commercially were purchased except for G2-22, which was synthesized with routine chemistry.
Cells were lysed in NP40 buffer and then separated into insoluble and soluble fractions according to a previously established technique. Samples were subjected to immunoblot analysis for AT and GAPDH. For immmunoblot analysis to detect AT or GAPDH, cells were lysed in 50 mM Tris-HCl, 150 mM NaCl, 1% NP-40, pH 8.0. Protein concentrations were determined by BCA protein assay (Pierce Biotechnology, Rockford, IL). […] The membranes were blocked in 5% milk and then incubated overnight at 4° C. with primary antibody for AT (1:1000, Diasorin), LC3 (1:2000, Sigma), p62 (1:1000, Cell signaling, Danvers, MA), ATG5 (1:1000, Cell signaling), mTOR substrate sampler (1:1000 for all antibodies, Cell signaling). Donkey anti-goat Ig (Jackson Labs, Bar Harbor, ME), goat anti-rabbit lg (1:50,000), or goat anti-mouse Ig (1:50,000) were used as secondary antibodies in TBST at RT, 1 hour. Blots were visualized with ECL or West Femto from Pierce. Membranes were re-probed with GAPDH (1:5000, Sigma) as loading control. Insoluble samples were stained with Gel Code Blue as loading control.

Row | SMILES | effect on cellular ATZ levels
1 | O=C(c1cc(Cl)c2ccc(=O)[nH]c2c1)N1CCCCC1 [G2-237, 5-chloro-7-(piperidine-1-carbonyl)quinolin-2(1H)-one] | reduce ATZ levels in a dose-dependent manner

Same assay, conditions: G2 and G2 analogs; positive activity if shown to have any activity, not quantified

Row | SMILES | Activity
2 | O=c1ccc2c(Cl)cc(-c3ccccc3)cc2[nH]1 [G2-233, 5-chloro-7-phenylquinolin-2(1H)-one] | Active
3 | O=c1ccc2c(Cl)cc(N3CCCCC3)cc2[nH]1 [G2-235, 5-chloro-7-(piperidin-1-yl)quinolin-2(1H)-one] | Active
4 | O=C(c1cc(Cl)c2ccc(=O)[nH]c2c1)N1CCCCC1 [G2-237, 5-chloro-7-(piperidine-1-carbonyl)quinolin-2(1H)-one] | Active
5 | CCCCCCOc1cc(Cl)c2ccc(=O)[nH]c2c1 [G-211, 5-chloro-7-(hexyloxy)quinolin-2(1H)-one] | Active

Same assay, conditions: TABLE 1; assay not given

Row | SMILES | IC50 [nM]
6 | O=c1ccc2c(Cl)cc(-c3ccccc3)cc2[nH]1 [G2-233, 5-chloro-7-phenylquinolin-2(1H)-one] | 1000 to 10000
7 | O=c1ccc2c(Cl)cc(N3CCCCC3)cc2[nH]1 [G2-235, 5-chloro-7-(piperidin-1-yl)quinolin-2(1H)-one] | 1000 to 10000
8 | O=C(c1cc(Cl)c2ccc(=O)[nH]c2c1)N1CCCCC1 [G2-237, 5-chloro-7-(piperidine-1-carbonyl)quinolin-2(1H)-one] | 100 to 1000
9 | CCCCCCOc1cc(Cl)c2ccc(=O)[nH]c2c1 [G-211, 5-chloro-7-(hexyloxy)quinolin-2(1H)-one] | 1000 to 10000
